This note sets out measurements from US20240059691A1 (KALVISTA PHARMACEUTICALS LIMITED, priority 2020, published 2024).

This experiment has as its target Human Factor XIIa (Homo sapiens (Human), UniProt P00748). As to the kind of experiment: Determination of FXIIa inhibition (fluorogenic substrate H-DPro-Phe-Arg-AFC, IC50 assay). The following applies: substrate H-DPro-Phe-Arg-AFC at Km, 25° C.; class scale A-G. The format is biochemical. As to the method:
Determination of FXIIa Inhibition
In vitro inhibition of Factor XIIa was determined using an IC50 assay based on standard literature methods (see e.g Baeriswyl et al., ACS Chem. Biol., 2015, 10 (8) 1861; Bouckaert et al., European Journal of Medicinal Chemistry 110 (2016) 181). Human Factor XIIa (Enzyme Research Laboratories) was incubated at 25° C. with the fluorogenic substrate H-DPro-Phe-Arg-AFC (Peptide Protein Science) and various concentrations of the test compound. Protease activity was measured by monitoring the accumulation of liberated fluorescence from the substrate over 5 min at 25° C. The linear rate of fluorescence increase per minute was expressed as percentage (%) activity. The Km for the cleavage of the substrate by FXIIa was determined by standard transformation of the Michaelis-Menten equation. The compound inhibitor assays were performed at substrate Km concentration. IC50 values were calculated as the concentration of inhibitor giving 50% inhibition (IC50) of the uninhibited enzyme activity (100%).

Chain of Human Factor XIIa (P00748 373-615): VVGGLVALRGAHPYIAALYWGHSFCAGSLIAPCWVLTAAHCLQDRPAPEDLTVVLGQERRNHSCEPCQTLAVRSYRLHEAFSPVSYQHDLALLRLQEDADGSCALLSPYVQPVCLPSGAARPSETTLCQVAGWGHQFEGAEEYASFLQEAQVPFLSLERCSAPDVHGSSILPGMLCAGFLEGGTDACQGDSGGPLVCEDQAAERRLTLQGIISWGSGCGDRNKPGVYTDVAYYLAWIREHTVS

Molecule `Nc1nccc2c(NS(=O)(=O)c3ccc(N4CCn5c(nnc5C(F)(F)F)C4)nc3)cccc12` [Example 1337, N-(1-aminoisoquinolin-5-yl)-6-(3-(trifluoromethyl)-5,6-dihydro-[1,2,4]triazolo[4,3-a]pyrazin-7(8H)-yl)pyridine-3-sulfonamide] yielded an IC50 of 300 to 1000 nM. In turn, `Cn1ccnc1COc1cc(CNc2ccc3c(N)nccc3c2)ccn1` [Example 4422, 6-N-({2-[(1-methylimidazol-2-yl)methoxy]pyridin-4-yl}methyl)isoquinoline-1,6-diamine] registered an IC50 of 3000 to 10000 nM.

As for `CN1CCC(F)(COc2cc(CNc3ccc4c(N)nccc4c3)ccn2)CC1` [Example 4415, 6-N-({2-[(4-fluoro-1-methylpiperidin-4-yl)methoxy]pyridin-4-yl}methyl)isoquinoline-1,6-diamine], the IC50 was 300 to 1000 nM.

Molecule `CN1CCC(CCc2cc(CNc3ccc4c(N)nccc4c3)ccn2)CC1` [Example 4409, 6-N-({2-[2-(1-methylpiperidin-4-yl)ethyl]pyridin-4-yl}methyl)isoquinoline-1,6-diamine] had an IC50 of 300 to 1000 nM. In the case of `Cc1cc2c(NCc3cnc(N4CCn5c(nnc5C(F)(F)F)C4)cc3C)cncc2[nH]1` [Example 1341, 2-methyl-N-((4-methyl-6-(3-(trifluoromethyl)-5,6-dihydro-[1,2,4]triazolo[4,3-a]pyrazin-7(8H)-yl)pyridin-3-yl)methyl)-1H-pyrrolo[2,3-c]pyridin-4-amine], the IC50 is 1000 to 3000 nM. On to `Nc1nccc2cc(NCc3ccnc(N4CCn5c(nnc5C(F)(F)F)C4)c3)ccc12` [Example 4471, N6-((2-(3-(trifluoromethyl)-5,6-dihydro-[1,2,4]triazolo[4,3-a]pyrazin-7(8H)-yl)pyridin-4-yl)methyl)isoquinoline-1,6-diamine], for which the IC50 fell in the range of 10000 to 40000 nM.

In turn, `CN1CCC(OCc2ccc(S(=O)(=O)Nc3ccc4c(N)nccc4c3)cc2)CC1` [Example 2210, N-(1-aminoisoquinolin-6-yl)-4-(((1-methylpiperidin-4-yl)oxy)methyl)benzenesulfonamide] came in with an IC50 of 300 to 1000 nM. The molecule `Cc1cc(N2CCn3c(nnc3C(F)(F)F)C2C)cnc1CNc1cccc2c(N)nccc12` (single isomer, unassigned) [Example 1346, (S*)-N5-((3-methyl-5-(8-methyl-3-(trifluoromethyl)-5,6-dihydro-[1,2,4]triazolo[4,3-a]pyrazin-7(8H)-yl)pyridin-2-yl)methyl)isoquinoline-1,5-diamine] yielded an IC50 of 1000 to 3000 nM. For `CCc1cc2c(NCc3ccc(NCC4CCN(C)CC4)nc3)ccnc2[nH]1` [Example 1239, 2-ethyl-N-((6-(((1-methylpiperidin-4-yl)methyl)amino)pyridin-3-yl)methyl)-1H-pyrrolo[2,3-b]pyridin-4-amine] the value was 10000 to 40000 nM; for `Cc1cc(N2CCn3c(nnc3C(F)(F)F)C2)ncc1CNc1ccnc(N)c1` [Example 1323, N4-((4-methyl-6-(3-(trifluoromethyl)-5,6-dihydro-[1,2,4]triazolo[4,3-a]pyrazin-7(8H)-yl)pyridin-3-yl)methyl)pyridine-2,4-diamine], 10000 to 40000 nM; for `Cn1ccnc1CCCOc1cc(CNc2cccc3c(N)nccc23)ccn1` [Example 4421, 5-N-({2-[3-(1-methylimidazol-2-yl)propoxy]pyridin-4-yl}methyl)isoquinoline-1,5-diamine], 300 to 1000 nM. In the case of `Nc1nccc2c(NCc3cnc(N4CCn5c(nnc5C(F)(F)F)C4)c(CO)c3)cccc12` [Example 1335, (5-(((1-aminoisoquinolin-5-yl)amino)methyl)-2-(3-(trifluoromethyl)-5,6-dihydro-[1,2,4]triazolo[4,3-a]pyrazin-7(8H)-yl)pyridin-3-yl)methanol] it was 10000 to 40000 nM; in that of `CN1CCC(C)(COc2cc(CNc3cccc4c(N)nccc34)ccn2)CC1` [Example 4424, N5-((2-((1,4-dimethylpiperidin-4-yl)methoxy)pyridin-4-yl)methyl)isoquinoline-1,5-diamine], 100 to 300 nM.
